# Reference: ChEMBL document CHEMBL1255467, “Comparative in vitro antimicrobial activities of torezolid (TR-700), the active moiety of a new oxazolidinone, torezolid phosphate (TR-701), determination of tentative disk diffusion interpretive criteria, and quality control ranges” (2010)
# Assays:
# Enterococcus faecium [1] = assay: Antimicrobial activity against vancomycin-resistant Enterococcus faecium by broth dilution method; type: functional
# Staphylococcus aureus [2] = assay: Antimicrobial activity against vancomycin-nonsusceptible Staphylococcus aureus by broth dilution method; type: functional; details: Staphylococcus aureus
# Streptococcus sp = assay: Antimicrobial activity against streptococcal sp. by broth dilution method; details: Streptococcus sp.
# Streptococcus viridans = assay: Antimicrobial activity against Streptococcus viridans by broth dilution method; type: functional
# Staphylococcus aureus [3] = assay: Antimicrobial activity against methicillin-resistant Staphylococcus aureus by broth dilution method; type: functional; details: Staphylococcus aureus
# Haemophilus influenzae [4] = assay: Antimicrobial activity against beta-lactamase positive Haemophilus influenzae by broth dilution method; type: functional; details: Haemophilus influenzae; for MIC90: read-out: MIC90
# Streptococcus pneumoniae [5] = assay: Antimicrobial activity against Streptococcus pneumoniae by broth dilution method; type: functional; details: Streptococcus pneumoniae
# Staphylococcus aureus [6] = assay: Antimicrobial activity against methicillin-susceptible Staphylococcus aureus by broth dilution method; type: functional; details: Staphylococcus aureus
# Streptococcus pneumoniae [7] = assay: Antimicrobial activity against penicillin-resistant Streptococcus pneumoniae by broth dilution method; type: functional
# Haemophilus influenzae [8] = assay: Antimicrobial activity against beta-lactamase negative Haemophilus influenzae by broth dilution method; type: functional; details: Haemophilus influenzae
# Streptococcus pneumoniae [9] = assay: Antimicrobial activity against penicillin-susceptible Streptococcus pneumoniae by broth dilution method; type: functional; details: Streptococcus pneumoniae
# Staphylococcus aureus [10] = assay: Antimicrobial activity against linezolid-resistant Staphylococcus aureus by broth dilution method; type: functional
# Enterococcus faecalis [11] = assay: Antimicrobial activity against vancomycin-resistant Enterococcus faecalis by broth dilution method; type: functional
# Enterococcus sp. = assay: Antimicrobial activity against Enterococcus by broth dilution method; type: functional; details: Enterococcus sp.
# Moraxella catarrhalis = assay: Antimicrobial activity against Moraxella catarrhalis by broth dilution method; type: functional
# Staphylococcus sp. [12] = assay: Antimicrobial activity against Staphylococcus sp. by broth dilution method; type: functional; details: Staphylococcus sp.
# Staphylococcus aureus [13] = assay: Antimicrobial activity against Staphylococcus aureus by broth dilution method; type: functional; details: Staphylococcus aureus
# Corynebacterium jeikeium = assay: Antimicrobial activity against Corynebacterium jeikeium by broth dilution method; type: functional
# Staphylococcus sp. [14] = assay: Antimicrobial activity against methicillin-susceptible coagulase-negative Staphylococcus by broth dilution method; type: functional; details: Staphylococcus sp.
# Listeria monocytogenes = assay: Antimicrobial activity against Listeria monocytogenes by broth dilution method; type: functional
# Streptococcus pneumoniae [15] = assay: Antimicrobial activity against penicillin-intermediate Streptococcus pneumoniae by broth dilution method; type: functional; details: Streptococcus pneumoniae
# Enterococcus faecalis [16] = assay: Antimicrobial activity against vancomycin-susceptible Enterococcus faecalis by broth dilution method; type: functional; details: Enterococcus faecalis
# Haemophilus influenzae [17] = assay: Antimicrobial activity against ampicillin-nonsusceptible beta-lactamase negative Haemophilus influenzae by broth dilution method; type: functional; details: Haemophilus influenzae
# Haemophilus influenzae [18] = assay: Antimicrobial activity against Haemophilus influenzae by broth dilution method; type: functional; details: Haemophilus influenzae
# Staphylococcus sp. [19] = assay: Antimicrobial activity against methicillin-resistant coagulase-negative Staphylococcus by broth dilution method; type: functional
# Enterococcus faecium [20] = assay: Antimicrobial activity against vancomycin-susceptible Enterococcus faecium by broth dilution method; type: functional; details: Enterococcus faecium
structure (smiles),measurement,setting,value
C[C@H]1COc2c(N3CCN(C)CC3)c(F)cc3c(=O)c(C(=O)O)cn1c23.C[C@H]1COc2c(N3CCN(C)CC3)c(F)cc3c(=O)c(C(=O)O)cn1c23.O [LEVOFLOXACIN],MIC50,Enterococcus faecium [1],> 16 µg/mL
same,MIC50,Staphylococcus aureus [2],16 µg/mL
same,MIC90,Staphylococcus aureus [2],> 16 µg/mL
same,MIC50,Streptococcus sp,1 µg/mL
same,MIC90,Streptococcus sp,1 µg/mL
same,MIC50,Streptococcus viridans,1 µg/mL
same,MIC90,Streptococcus viridans,2 µg/mL
same,MIC50,Staphylococcus aureus [3],8 µg/mL
same,MIC,Haemophilus influenzae [4],0.12 µg/mL
same,MIC50,Haemophilus influenzae [4],0.12 µg/mL
same,MIC90,Haemophilus influenzae [4],0.12 µg/mL
same,MIC50,Streptococcus pneumoniae [5],1 µg/mL
same,MIC90,Streptococcus pneumoniae [5],1 µg/mL
same,MIC50,Staphylococcus aureus [6],0.25 µg/mL
same,MIC90,Staphylococcus aureus [6],4 µg/mL
same,MIC50,Streptococcus pneumoniae [7],1 µg/mL
same,MIC90,Streptococcus pneumoniae [7],1 µg/mL
same,MIC,Haemophilus influenzae [8],0.12 µg/mL
same,MIC50,Haemophilus influenzae [8],0.12 µg/mL
same,MIC90,Haemophilus influenzae [8],0.12 µg/mL
same,MIC50,Streptococcus pneumoniae [9],1 µg/mL
same,MIC90,Streptococcus pneumoniae [9],1 µg/mL
same,MIC50,Staphylococcus aureus [10],> 16 µg/mL
same,MIC50,Enterococcus faecalis [11],> 16 µg/mL
same,MIC50,Enterococcus sp.,> 16 µg/mL
same,MIC90,Enterococcus sp.,> 16 µg/mL
same,MIC50,Moraxella catarrhalis,0.06 µg/mL
same,MIC90,Moraxella catarrhalis,0.06 µg/mL
same,MIC50,Staphylococcus sp. [12],0.5 µg/mL
same,MIC90,Staphylococcus sp. [12],> 16 µg/mL
same,MIC50,Staphylococcus aureus [13],4 µg/mL
same,MIC90,Staphylococcus aureus [13],> 16 µg/mL
same,MIC,Corynebacterium jeikeium,> 16 µg/mL
same,MIC50,Corynebacterium jeikeium,> 16 µg/mL
same,MIC90,Corynebacterium jeikeium,> 16 µg/mL
same,MIC50,Staphylococcus sp. [14],0.25 µg/mL
same,MIC90,Staphylococcus sp. [14],0.5 µg/mL
same,MIC,Listeria monocytogenes,1 µg/mL
same,MIC50,Listeria monocytogenes,1 µg/mL
same,MIC90,Listeria monocytogenes,1 µg/mL
same,MIC50,Streptococcus pneumoniae [15],1 µg/mL
same,MIC90,Streptococcus pneumoniae [15],1 µg/mL
same,MIC50,Enterococcus faecalis [16],1 µg/mL
same,MIC90,Enterococcus faecalis [16],> 16 µg/mL
same,MIC,Haemophilus influenzae [17],0.12 µg/mL
same,MIC50,Haemophilus influenzae [17],0.12 µg/mL
same,MIC90,Haemophilus influenzae [17],0.12 µg/mL
same,MIC,Haemophilus influenzae [18],0.12 µg/mL
same,MIC50,Haemophilus influenzae [18],0.12 µg/mL
same,MIC90,Haemophilus influenzae [18],0.12 µg/mL
same,MIC50,Staphylococcus sp. [19],8 µg/mL
same,MIC50,Enterococcus faecium [20],4 µg/mL
same,MIC90,Enterococcus faecium [20],> 16 µg/mL
CO/N=C(\C(=O)N[C@@H]1C(=O)N2C(C(=O)O)=C(COC(C)=O)CS[C@H]12)c1csc(N)n1 [CEFOTAXIME],MIC,Enterococcus faecium [1],> 64 µg/mL
same,MIC50,Staphylococcus aureus [2],> 64 µg/mL
same,MIC90,Staphylococcus aureus [2],> 64 µg/mL
same,MIC50,Streptococcus sp,0.03 µg/mL
same,MIC90,Streptococcus sp,1 µg/mL
same,MIC50,Streptococcus viridans,0.12 µg/mL
same,MIC90,Streptococcus viridans,0.5 µg/mL
same,MIC50,Staphylococcus aureus [3],16 µg/mL
same,MIC50,Haemophilus influenzae [4],0.015 µg/mL
same,MIC90,Haemophilus influenzae [4],0.015 µg/mL
same,MIC50,Streptococcus pneumoniae [5],0.12 µg/mL
same,MIC90,Streptococcus pneumoniae [5],2 µg/mL
same,MIC50,Staphylococcus aureus [6],2 µg/mL
same,MIC90,Staphylococcus aureus [6],2 µg/mL
same,MIC50,Streptococcus pneumoniae [7],1 µg/mL
same,MIC90,Streptococcus pneumoniae [7],8 µg/mL
same,MIC,Haemophilus influenzae [8],0.008 µg/mL
same,MIC50,Haemophilus influenzae [8],0.008 µg/mL
same,MIC90,Haemophilus influenzae [8],0.015 µg/mL
same,MIC,Streptococcus pneumoniae [9],0.015 µg/mL
same,MIC50,Streptococcus pneumoniae [9],0.015 µg/mL
same,MIC90,Streptococcus pneumoniae [9],0.03 µg/mL
same,MIC50,Enterococcus sp.,> 64 µg/mL
same,MIC90,Enterococcus sp.,> 64 µg/mL
same,MIC50,Moraxella catarrhalis,0.25 µg/mL
same,MIC90,Moraxella catarrhalis,1 µg/mL
same,MIC50,Staphylococcus sp. [12],4 µg/mL
same,MIC90,Staphylococcus sp. [12],> 64 µg/mL
same,MIC50,Staphylococcus aureus [13],> 8 µg/mL
same,MIC90,Staphylococcus aureus [13],> 64 µg/mL
same,MIC50,Corynebacterium jeikeium,32 µg/mL
same,MIC90,Corynebacterium jeikeium,32 µg/mL
same,MIC50,Staphylococcus sp. [14],0.5 µg/mL
same,MIC90,Staphylococcus sp. [14],2 µg/mL
same,MIC50,Listeria monocytogenes,32 µg/mL
same,MIC90,Listeria monocytogenes,32 µg/mL
same,MIC50,Streptococcus pneumoniae [15],0.12 µg/mL
same,MIC90,Streptococcus pneumoniae [15],0.5 µg/mL
same,MIC50,Enterococcus faecalis [16],> 64 µg/mL
same,MIC90,Enterococcus faecalis [16],> 64 µg/mL
same,MIC50,Haemophilus influenzae [17],0.5 µg/mL
same,MIC90,Haemophilus influenzae [17],0.5 µg/mL
same,MIC50,Haemophilus influenzae [18],0.015 µg/mL
same,MIC90,Haemophilus influenzae [18],0.5 µg/mL
same,MIC50,Staphylococcus sp. [19],8 µg/mL
same,MIC50,Enterococcus faecium [20],> 64 µg/mL
same,MIC90,Enterococcus faecium [20],> 64 µg/mL
